In this assay the target is T1, SIRT1 (Homo sapiens, UniProt Q96EB6).
T1 sequence (Q96EB6 1-747): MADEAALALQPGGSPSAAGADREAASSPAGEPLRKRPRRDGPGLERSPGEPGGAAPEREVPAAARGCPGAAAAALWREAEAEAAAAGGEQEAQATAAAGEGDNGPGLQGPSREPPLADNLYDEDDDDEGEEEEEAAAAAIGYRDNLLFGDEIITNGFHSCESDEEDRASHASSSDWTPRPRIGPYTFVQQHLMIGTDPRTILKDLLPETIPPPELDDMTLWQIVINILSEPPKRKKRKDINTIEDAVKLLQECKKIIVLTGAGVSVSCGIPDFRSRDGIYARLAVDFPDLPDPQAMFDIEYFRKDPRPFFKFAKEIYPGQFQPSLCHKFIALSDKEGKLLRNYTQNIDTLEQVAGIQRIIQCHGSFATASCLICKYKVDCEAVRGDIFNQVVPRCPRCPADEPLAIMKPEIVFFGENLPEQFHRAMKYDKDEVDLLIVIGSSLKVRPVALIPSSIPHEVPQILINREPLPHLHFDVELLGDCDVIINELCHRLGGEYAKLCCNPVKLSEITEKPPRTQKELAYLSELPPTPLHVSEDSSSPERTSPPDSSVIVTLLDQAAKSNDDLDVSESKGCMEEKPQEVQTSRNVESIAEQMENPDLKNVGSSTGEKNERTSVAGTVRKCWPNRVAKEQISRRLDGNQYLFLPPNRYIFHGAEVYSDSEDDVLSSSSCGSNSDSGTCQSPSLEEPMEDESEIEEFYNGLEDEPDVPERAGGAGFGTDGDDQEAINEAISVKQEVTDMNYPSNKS
Nature of the assay: Trp mass spectrometry assay of SIRT1 activation (deacetylation of Ac-R-H-K-K(Ac)-W-NH2 peptide, OAADPR formation). The format is biochemical. The conditions noted are these: Trp peptide 0.5 μM, 120 μM βNAD+, 10 nM SIRT1, 25 min, 25° C.; for Emax: 25 min, read-out: TRP MAX RESP (percent maximum fold activation relative to control = 100%). The text has this: Mass spectrometry based assays were used to identify modulators of SIRT1 activity. The TAMRA based assay utilized a peptide having 20 amino acid residues as follows: Ac-EE-K(biotin)-[…](Ac)NleSTEG-K(5TMR)-EE-NH2 (SEQ ID NO: 1), wherein K(Ac) is an acetylated lysine residue and Nle is a norleucine. The peptide was labeled with the fluorophore 5TMR (excitation 540 nm/emission 580 nm) at the C-terminus. The sequence of the peptide substrate was based on p53 with several modifications. In addition, the methionine residue naturally present in the sequence was replaced with the norleucine because the methionine may be susceptible to oxidation during synthesis and purification. The Trp based assay utilized a peptide having an amino acid residues as follows: Ac-R-H-K-K(Ac)-W-NH2 (SEQ ID NO: 2).
The Trp mass spectrometry assay was conducted as follows. 0.5 μM peptide substrate and 120 μM βNAD^+ were incubated with 10 nM SIRT1 for 25 minutes at 25° C. in a reaction buffer (50 mM HEPES pH 7.5, […], 1 mM DTT, 0.05% BSA). The SIRT1 protein was obtained by cloning the SirT1 gene into a T7-promoter containing vector, which was then expressed in BL21(DE3) bacterial cells and purified as described in further detail below. Test compound was added at varying concentrations to this reaction mixture and the resulting reactions were monitored. After the 25 minute incubation with SIRT1, 10 μL of 10% formic acid was added to stop the reaction. The resulting reactions were sealed and frozen for later mass spec analysis. The relative SIRT1 activity was then determined by measuring the amount of O-acetyl-ADP-ribose (OAADPR) formed (or, alternatively, the amount of deacetylated Trp peptide generated) by the NAD-dependent sirtuin deacetylation reaction in the presence of varying concentrations of the test compound versus control reactions lacking the test compound. The degree to which the test agent activated deacetylation by SIRT1 was expressed as EC1.5 (i.e., the concentration of compound required to increase SIRT1 activity by 50% over the control lacking test compound), and Percent Maximum Activation (i.e., the maximum activity relative to control (100%) obtained for the test compound).
A control for inhibition of sirtuin activity was conducted by adding 1 μL of 500 mM nicotinamide as a negative control at the start of the reaction (e.g., permits determination of maximum sirtuin inhibition). A control for activation of sirtuin activity was conducted using 10 nM of sirtuin protein, with 1 μL of DMSO in place of compound, to determine the amount of deacetylation of the substrate at a given time point within the linear range of the assay. This time point was the same as that used for test compounds and, within the linear range, the endpoint represents a change in velocity.
For the above assay, SIRT1 protein was expressed and purified as follows. The SirT1 gene was cloned into a T7-promoter containing vector and transformed into BL21(DE3). The protein was expressed by induction with 1 mM IPTG as an N-terminal His-tag fusion protein at 18° C. overnight and harvested at 30,000×g. Cells were lysed with lysozyme in lysis buffer (50 mM Tris-HCl, 2 mM Tris[2-carboxyethyl] phosphine (TCEP), 10 μM ZnCl2, 200 mM NaCl) and further treated with sonication for 10 min for complete lysis. The protein was purified over a Ni-NTA column (Amersham) and fractions containing pure protein were pooled, concentrated and run over a sizing column (Sephadex S200 26/60 global). The peak containing soluble protein was collected and run on an Ion-exchange column (MonoQ). Gradient elution (200 mM-500 mM NaCl) yielded pure protein. This protein was concentrated and dialyzed against dialysis buffer (20 mM Tris-HCl, 2 mM TCEP) overnight. The protein was aliquoted and frozen at −80° C. until further use.
Sirtuin-modulating compounds of Formula (I) that activated SIRT1 were identified using the assay described above and are shown below in Table 1. […]

With `O=C(Nc1nccc(OC[C@H](O)CO)n1)N1c2nc(-c3cccc(C(F)(F)F)c3)c(Cl)cc2N2CCC[C@H]1C2` [Example 78, (9S)-3-chloro-N-(4-((R)-2,3-dihydroxypropoxy)pyrimidin-2-yl)-2-(3-(trifluoromethyl)phenyl)-8,9-dihydro-6H-5,9-methanopyrido[2,3-b][1,4]diazocine-10(7H)-carboxamide], the Emax was at least 150% and the “TRP Activity (EC1.5, concentration of compound required to increase SIRT1 activity by 50% over control)” value is reported as “A (EC1.5<1 μM)”.
The like results for `Cc1ccc2c(NC(=O)N3c4nc(C(=O)NC5CC5)ccc4N4CCC[C@H]3C4)n[nH]c2n1` [Example 42, (9S)-N2-cyclopropyl-N10-(6-methyl-1H-pyrazolo[3,4-b]pyridin-3-yl)-8,9-dihydro-6H-5,9-methanopyrido[2,3-b][1,4]diazocine-2,10(7H)-dicarboxamide] were, in that order, at least 150% and “A (EC1.5<1 μM)”.
Regarding `O=C(Nc1ccnc(OC[C@H](O)CO)n1)N1c2nc(-c3cccc(C(F)(F)F)c3)c(Cl)cc2N2CCC[C@H]1C2` [Example 88, (9S)-3-chloro-N-(2-((R)-2,3-dihydroxypropoxy)pyrimidin-4-yl)-2-(3-(trifluoromethyl)phenyl)-8,9-dihydro-6H-5,9-methanopyrido[2,3-b][1,4]diazocine-10(7H)-carboxamide], the Emax was at least 150% and the “TRP Activity (EC1.5, concentration of compound required to increase SIRT1 activity by 50% over control)” value is “A (EC1.5<1 μM)”.
For `C[C@@H](NC(=O)c1ccc2c(n1)N(C(=O)Nc1ccc(OC[C@@H](O)CO)cn1)[C@H]1CCCN2C1)C(F)(F)F` [Example 54, (9S)-N10-(5-((S)-2,3-dihydroxypropoxy)pyridin-2-yl)-N2-((R)-1,1,1-trifluoropropan-2-yl)-8,9-dihydro-6H-5,9-methanopyrido[2,3-b][1,4]diazocine-2,10(7H)-dicarboxamide] the same measures were at least 150% and “A (EC1.5<1 μM)”.
The like results for `O=C(NC1CC1(F)F)c1ccc2c(n1)N(C(=O)Nc1cc(OC[C@H](O)CO)ccn1)[C@H]1CCCN2C1` (single isomer, unassigned) [Example 50] were, in that order, at least 150% and “A (EC1.5<1 μM)”.
For `C[C@@H](NC(=O)c1ccc2c(n1)N(C(=O)Nc1cnc(OC[C@H](O)CO)cn1)[C@H]1CCCN2C1)C(F)(F)F` [Example 49, (9S)-N10-(5-((R)-2,3-dihydroxypropoxy)pyrazin-2-yl)-N2-((R)-1,1,1-trifluoropropan-2-yl)-8,9-dihydro-6H-5,9-methanopyrido[2,3-b][1,4]diazocine-2,10(7H)-dicarboxamide] the same measures were at least 150% and “A (EC1.5<1 μM)”.
On to `C[C@@H](NC(=O)c1nc2c(cc1Cl)N1CCC[C@@H](C1)N2C(=O)Nc1ccccn1)C(F)(F)F` [Example 39, (9S)-3-chloro-N10-(pyridin-2-yl)-N2-((R)-1,1,1-trifluoropropan-2-yl)-8,9-dihydro-6H-5,9-methanopyrido[2,3-b][1,4]diazocine-2,10(7H)-dicarboxamide], for which the Emax was at least 150% and the “TRP Activity (EC1.5, concentration of compound required to increase SIRT1 activity by 50% over control)” value is “A (EC1.5<1 μM)”.
In the case of `O=C(Nc1ccc(OC[C@@H](O)CO)nc1)N1c2nc(-c3cccc(C(F)(F)F)c3)c(Cl)cc2N2CCC[C@H]1C2` [Example 84, (9S)-3-chloro-N-(6-((S)-2,3-dihydroxypropoxy)pyridin-3-yl)-2-(3-(trifluoromethyl)phenyl)-8,9-dihydro-6H-5,9-methanopyrido[2,3-b][1,4]diazocine-10(7H)-carboxamide], the Emax is at least 150% and the “TRP Activity (EC1.5, concentration of compound required to increase SIRT1 activity by 50% over control)” value is “A (EC1.5<1 μM)”.
